Reference: ChEMBL document CHEMBL3102826 (J Med Chem, 2013)
Calls of active or inactive are those of the source. The rule behind the calls is not given here.

Legend:
[1] = biological target: T1, Dual specificity tyrosine-phosphorylation-regulated kinase 1A (Rattus norvegicus, UniProt Q63470); experiment: Inhibition of rat recombinant 6xHis-tagged DYRK1A catalytic domain (1 to 502) expressed in Escherichia coli BL21 (DE3) using N-terminal fluorescein coupled KISGRLSPIMTEQ as substrate after 30 mins by HPLC analysis in presence of 50 uM ATP
[2] = biological target: T1, Dual specificity tyrosine-phosphorylation-regulated kinase 1A; experiment: Inhibition of rat recombinant 6xHis-tagged DYRK1A catalytic domain (1 to 502) expressed in Escherichia coli BL21 (DE3) using N-terminal fluorescein coupled KISGRLSPIMTEQ as substrate after 30 mins by HPLC analysis in presence of 1 mM ATP
[3] = Cytotoxicity against human KB cells assessed as growth inhibition at 10^-6 M after 72 hrs by resazurin dye-based fluorimetric analysis relative to control; type: cell-based; details: read-out: GI
[4] = Cytotoxicity against human KB cells assessed as growth inhibition at 10^-5 M after 72 hrs by resazurin dye-based fluorimetric analysis relative to control; type: cell-based; details: read-out: GI
[5] = biological target: High affinity nerve growth factor receptor (Homo sapiens) (UniProt P04629); experiment: Inhibition of human TRKA at 5 x 10^-8 M
Sequence of High affinity nerve growth factor receptor (Homo sapiens) (P04629 33-796 limits assumed): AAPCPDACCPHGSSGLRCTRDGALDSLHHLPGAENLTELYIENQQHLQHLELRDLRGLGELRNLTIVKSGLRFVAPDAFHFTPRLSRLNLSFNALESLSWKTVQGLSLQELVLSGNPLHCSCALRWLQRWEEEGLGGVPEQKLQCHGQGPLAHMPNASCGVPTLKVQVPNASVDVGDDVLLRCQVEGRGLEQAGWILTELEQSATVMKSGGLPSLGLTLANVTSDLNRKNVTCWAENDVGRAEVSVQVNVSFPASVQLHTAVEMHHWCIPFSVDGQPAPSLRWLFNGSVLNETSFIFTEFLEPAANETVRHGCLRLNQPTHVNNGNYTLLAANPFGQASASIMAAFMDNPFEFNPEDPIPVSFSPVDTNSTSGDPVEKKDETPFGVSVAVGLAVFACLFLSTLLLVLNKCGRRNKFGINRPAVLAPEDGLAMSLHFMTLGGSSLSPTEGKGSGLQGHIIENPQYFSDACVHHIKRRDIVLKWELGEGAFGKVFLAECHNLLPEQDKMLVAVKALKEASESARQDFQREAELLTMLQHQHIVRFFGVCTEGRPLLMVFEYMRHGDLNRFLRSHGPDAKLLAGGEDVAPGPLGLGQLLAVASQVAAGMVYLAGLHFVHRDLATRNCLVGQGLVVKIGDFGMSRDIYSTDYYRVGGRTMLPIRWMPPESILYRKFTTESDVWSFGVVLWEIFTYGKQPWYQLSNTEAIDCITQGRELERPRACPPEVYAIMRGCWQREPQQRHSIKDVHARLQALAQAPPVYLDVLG

[6] = biological target: Serine/threonine-protein kinase pim-1 (Homo sapiens) (UniProt P11309); experiment: Inhibition of human Pim1 kinase at 5 x 10^-8 M
Sequence of Serine/threonine-protein kinase pim-1 (Homo sapiens) (P11309 whole entry, looked up): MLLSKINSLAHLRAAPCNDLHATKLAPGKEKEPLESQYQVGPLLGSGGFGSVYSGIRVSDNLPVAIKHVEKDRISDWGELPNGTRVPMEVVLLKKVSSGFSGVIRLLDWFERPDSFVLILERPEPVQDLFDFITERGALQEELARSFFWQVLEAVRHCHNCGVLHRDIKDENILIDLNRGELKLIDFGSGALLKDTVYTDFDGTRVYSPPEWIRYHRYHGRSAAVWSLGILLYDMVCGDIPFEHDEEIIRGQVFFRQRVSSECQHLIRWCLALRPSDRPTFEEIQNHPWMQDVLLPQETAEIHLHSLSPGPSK

[7] = biological target: Glycogen synthase kinase-3 beta (Homo sapiens) (UniProt P49841); experiment: Inhibition of human GSK-3beta at 5 x 10^-8 M
Sequence of Glycogen synthase kinase-3 beta (Homo sapiens) (P49841 whole entry, looked up): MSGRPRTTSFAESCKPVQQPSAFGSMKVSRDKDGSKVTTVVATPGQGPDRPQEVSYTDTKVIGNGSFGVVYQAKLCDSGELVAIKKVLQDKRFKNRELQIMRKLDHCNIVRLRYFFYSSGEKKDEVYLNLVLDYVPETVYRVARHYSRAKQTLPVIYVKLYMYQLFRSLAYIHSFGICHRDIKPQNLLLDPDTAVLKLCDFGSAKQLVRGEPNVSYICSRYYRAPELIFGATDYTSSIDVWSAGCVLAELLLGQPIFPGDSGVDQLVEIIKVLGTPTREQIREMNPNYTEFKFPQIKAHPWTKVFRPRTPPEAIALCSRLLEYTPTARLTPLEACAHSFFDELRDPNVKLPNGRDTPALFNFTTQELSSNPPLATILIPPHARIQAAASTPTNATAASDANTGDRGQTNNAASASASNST

[8] = biological target: Mitogen-activated protein kinase 1 (Homo sapiens) (UniProt P28482); experiment: Inhibition of human ERK2 at 5 x 10^-8 M
Sequence of Mitogen-activated protein kinase 1 (Homo sapiens) (P28482 whole entry, the tested form may be a part): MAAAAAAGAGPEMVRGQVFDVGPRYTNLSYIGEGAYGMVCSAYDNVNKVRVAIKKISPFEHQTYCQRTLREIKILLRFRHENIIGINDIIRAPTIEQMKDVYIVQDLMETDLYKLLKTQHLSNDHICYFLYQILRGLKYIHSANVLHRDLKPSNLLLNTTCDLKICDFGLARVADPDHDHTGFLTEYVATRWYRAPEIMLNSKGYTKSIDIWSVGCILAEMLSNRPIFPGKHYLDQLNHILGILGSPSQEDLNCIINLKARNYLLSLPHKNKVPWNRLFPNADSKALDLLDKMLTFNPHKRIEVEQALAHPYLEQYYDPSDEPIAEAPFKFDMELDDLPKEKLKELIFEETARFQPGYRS

[9] = biological target: T1, Dual specificity tyrosine-phosphorylation-regulated kinase 1A; experiment: Competitive inhibition of rat recombinant 6xHis-tagged DYRK1A catalytic domain (1 to 502) expressed in Escherichia coli BL21 (DE3) using ATP as substrate by Michaelis-Menten plot analysis
[10] = biological target: T2, Dual specificity tyrosine-phosphorylation-regulated kinase 3 (Homo sapiens) (UniProt O43781); experiment: Inhibition of human DYRK3 at 5 x 10^-8 M relative to control
T2 sequence (whole entry): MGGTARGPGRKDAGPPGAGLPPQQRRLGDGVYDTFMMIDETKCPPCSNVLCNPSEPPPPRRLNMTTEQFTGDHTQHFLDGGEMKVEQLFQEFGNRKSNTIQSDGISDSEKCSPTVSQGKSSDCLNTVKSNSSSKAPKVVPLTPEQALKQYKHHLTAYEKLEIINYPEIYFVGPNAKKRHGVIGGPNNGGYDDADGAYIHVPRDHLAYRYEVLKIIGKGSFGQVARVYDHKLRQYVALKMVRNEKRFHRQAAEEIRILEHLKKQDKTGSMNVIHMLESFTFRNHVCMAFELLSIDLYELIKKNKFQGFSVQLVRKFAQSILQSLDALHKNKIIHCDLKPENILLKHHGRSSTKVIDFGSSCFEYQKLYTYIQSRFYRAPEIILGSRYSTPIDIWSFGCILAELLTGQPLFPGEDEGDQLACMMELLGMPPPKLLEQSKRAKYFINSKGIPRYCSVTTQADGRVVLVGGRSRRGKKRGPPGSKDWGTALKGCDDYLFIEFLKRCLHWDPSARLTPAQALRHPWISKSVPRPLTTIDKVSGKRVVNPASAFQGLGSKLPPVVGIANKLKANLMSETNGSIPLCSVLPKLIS

[11] = biological target: T3, Dual specificity tyrosine-phosphorylation-regulated kinase 2 (Homo sapiens) (UniProt Q92630); experiment: Inhibition of human DYRK2 at 5 x 10^-8 M relative to control
T3 sequence (whole entry): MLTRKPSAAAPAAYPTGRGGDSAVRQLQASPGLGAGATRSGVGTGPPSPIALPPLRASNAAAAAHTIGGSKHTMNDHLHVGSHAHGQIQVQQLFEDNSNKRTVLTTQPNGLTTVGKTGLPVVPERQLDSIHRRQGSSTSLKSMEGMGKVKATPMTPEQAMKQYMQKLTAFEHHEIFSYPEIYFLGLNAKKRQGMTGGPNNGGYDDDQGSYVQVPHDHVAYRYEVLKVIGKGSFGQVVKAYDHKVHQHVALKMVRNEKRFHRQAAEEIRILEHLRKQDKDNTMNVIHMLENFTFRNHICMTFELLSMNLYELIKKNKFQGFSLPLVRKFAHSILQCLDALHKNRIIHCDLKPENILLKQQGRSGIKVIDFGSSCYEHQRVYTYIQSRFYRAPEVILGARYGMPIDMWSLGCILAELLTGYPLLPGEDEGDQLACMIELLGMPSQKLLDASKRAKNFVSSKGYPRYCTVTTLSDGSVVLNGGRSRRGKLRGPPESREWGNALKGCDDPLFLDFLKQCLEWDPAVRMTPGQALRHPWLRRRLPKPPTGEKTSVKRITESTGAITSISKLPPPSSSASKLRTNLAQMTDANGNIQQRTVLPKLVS

[12] = biological target: CDK2/Cyclin A2 (Homo sapiens) (UniProt P24941+P20248); experiment: Inhibition of human CDK2/cyclin A at 5 x 10^-8 M relative to control; type: protein-complex assay
[13] = biological target: Casein kinase I isoform alpha (Homo sapiens) (UniProt P48729); experiment: Inhibition of human CK1alpha at 5 x 10^-8 M relative to control
Sequence of Casein kinase I isoform alpha (Homo sapiens) (P48729 2-337 limits assumed): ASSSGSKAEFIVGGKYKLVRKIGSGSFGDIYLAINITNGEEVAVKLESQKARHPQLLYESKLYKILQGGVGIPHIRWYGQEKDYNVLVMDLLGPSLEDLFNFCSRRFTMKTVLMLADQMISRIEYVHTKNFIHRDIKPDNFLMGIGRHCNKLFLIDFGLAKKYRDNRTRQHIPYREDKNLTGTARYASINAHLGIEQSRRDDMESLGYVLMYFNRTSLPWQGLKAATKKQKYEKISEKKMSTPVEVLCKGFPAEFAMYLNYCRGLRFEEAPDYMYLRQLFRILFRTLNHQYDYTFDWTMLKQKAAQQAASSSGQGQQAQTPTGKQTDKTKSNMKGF

[14] = biological target: T4, Dual specificity tyrosine-phosphorylation-regulated kinase 1A (Homo sapiens, UniProt Q13627); experiment: Inhibition of DYRK1A (unknown origin) by HPLC analysis
[15] = biological target: T4, Dual specificity tyrosine-phosphorylation-regulated kinase 1A; experiment: Inhibition of human GST-fused DYRK1A expressed in Escherichia coli using KISGRLSPIMTEQ as substrate
[16] = biological target: RAC-alpha serine/threonine-protein kinase (Homo sapiens) (UniProt P31749); experiment: Inhibition of human AKT1 at 5 x 10^-8 M
Sequence of RAC-alpha serine/threonine-protein kinase (Homo sapiens) (P31749 whole entry): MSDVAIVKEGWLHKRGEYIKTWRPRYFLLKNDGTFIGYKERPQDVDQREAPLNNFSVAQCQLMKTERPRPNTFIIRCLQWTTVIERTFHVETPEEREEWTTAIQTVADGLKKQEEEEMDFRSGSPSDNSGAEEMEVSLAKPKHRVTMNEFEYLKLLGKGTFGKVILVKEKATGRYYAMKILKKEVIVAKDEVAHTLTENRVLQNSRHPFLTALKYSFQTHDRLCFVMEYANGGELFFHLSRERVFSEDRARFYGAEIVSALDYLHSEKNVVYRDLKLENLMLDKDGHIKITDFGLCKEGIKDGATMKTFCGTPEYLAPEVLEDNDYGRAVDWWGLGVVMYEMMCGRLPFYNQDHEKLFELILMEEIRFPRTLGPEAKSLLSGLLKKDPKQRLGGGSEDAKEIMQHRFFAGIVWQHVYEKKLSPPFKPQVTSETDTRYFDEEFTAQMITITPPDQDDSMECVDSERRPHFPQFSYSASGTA

COc1ccc(OC)c(-c2cnc3[nH]cc(-c4ccc(OC)c(OC)c4)c3c2)c1
IC50 [1]: 1670 nM

COc1ccc(-c2c[nH]c3ncc(-c4ccc(OC)cc4OC)cc23)cc1
IC50 [1]: 280 nM

COc1ccc(-c2cnc3[nH]cc(-c4ccc(OC)c(OC)c4)c3c2)c(OC)c1
IC50 [1]: 2880 nM

Oc1ccc(-c2c[nH]c3ncc(-c4ccc(O)c(O)c4)cc23)cc1
IC50 [2]: 5.5 nM
IC50 [1]: 3 nM
inhibition at 72 h, 1 µM [3]: 56%
inhibition at 72 h, 10 µM [4]: 86%
inhibition [5]: inactive
inhibition [6]: inactive
inhibition [7]: inactive
inhibition [8]: inactive
Ki [9]: < 2 nM

COc1ccc(-c2cnc3[nH]cc(-c4ccccc4)c3c2)cc1
IC50 [1]: 960 nM

Oc1ccc(-c2c[nH]c3ncc(-c4ccc(O)cc4O)cc23)cc1
IC50 [2]: 48 nM
IC50 [1]: 11.7 nM
inhibition at 72 h, 1 µM [3]: 21%
inhibition at 72 h, 10 µM [4]: 83%
inhibition [10]: < 50%
inhibition [11]: < 50%
inhibition [12]: < 50%
inhibition [13]: < 50%
inhibition [5]: inactive
inhibition [6]: inactive
inhibition [7]: inactive
inhibition [8]: inactive
Ki [9]: 5.5 nM

Oc1ccc(-c2cnc3[nH]cc(-c4ccccc4)c3c2)cc1O
IC50 [1]: 160 nM

Oc1ccc(-c2cnc3[nH]cc(-c4ccc(O)c(O)c4)c3c2)c(O)c1
IC50 [1]: 14.3 nM
inhibition at 72 h, 1 µM [3]: 0%
inhibition at 72 h, 10 µM [4]: 9%
Ki [9]: 7.6 nM

COc1ccc(-c2cnc3[nH]cc(-c4ccccc4)c3c2)cc1OC
IC50 [1]: 3080 nM

Oc1cccc(-c2cnc3[nH]cc(-c4ccccc4)c3c2)c1
IC50 [1]: 2700 nM

Oc1ccc(-c2cc3c(-c4ccccc4)c[nH]c3cn2)cc1
IC50 [14]: 27400 nM

COc1ccccc1-c1cnc2[nH]cc(-c3ccccc3)c2c1
IC50 [1]: 960 nM

Oc1ccc(-c2cnc3[nH]cc(-c4ccc(O)cc4)c3c2)cc1
IC50 [2]: 43 nM
IC50 [1]: 23.1 nM
inhibition at 72 h, 1 µM [3]: 51%
inhibition at 72 h, 10 µM [4]: 95%
inhibition [5]: inactive
inhibition [6]: inactive
inhibition [7]: inactive
inhibition [8]: inactive
Ki [9]: 2.3 nM

Oc1ccccc1-c1cnc2[nH]cc(-c3ccccc3)c2c1
IC50 [1]: 3590 nM

Oc1ccc(-c2cnc3[nH]cc(-c4ccccc4)c3c2)c(O)c1
IC50 [1]: 150 nM

COc1ccc(-c2cnc3[nH]cc(-c4ccccc4)c3c2)c(OC)c1
IC50 [1]: 1170 nM

c1ccc(-c2cnc3[nH]cc(-c4ccccc4)c3c2)cc1
IC50 [1]: 410 nM

COc1ccc(-c2cnc3[nH]cc(-c4ccc(OC)c(OC)c4)c3c2)cc1OC
IC50 [1]: 57800 nM

Oc1ccc(-c2cnc3[nH]cc(-c4ccccc4)c3c2)cc1
IC50 [1]: 330 nM

COc1ccc(-c2cnc3[nH]cc(-c4ccc(OC)cc4)c3c2)cc1
IC50 [1]: 1740 nM

COc1ccc(-c2c[nH]c3ncc(-c4ccc(OC)c(OC)c4)cc23)cc1
IC50 [1]: 460 nM

O=C(O[C@@H]1Cc2c(O)cc(O)cc2O[C@@H]1c1cc(O)c(O)c(O)c1)c1cc(O)c(O)c(O)c1 [EPIGALOCATECHIN GALLATE]
IC50 [15]: 330 nM

COc1ccc(-c2cc3c(-c4ccccc4)c[nH]c3cn2)cc1
IC50 [14]: 17000 nM

COc1cccc(-c2cnc3[nH]cc(-c4ccccc4)c3c2)c1
IC50 [1]: 7490 nM

Oc1ccc(O)c(-c2cnc3[nH]cc(-c4ccc(O)c(O)c4)c3c2)c1
IC50 [1]: 39.1 nM
Ki [9]: 12.1 nM

Oc1ccc(-c2cnc3[nH]cc(-c4ccc(O)c(O)c4)c3c2)cc1O
IC50 [2]: 32 nM
IC50 [1]: 12.4 nM
inhibition [16]: Active
inhibition at 72 h, 1 µM [3]: 2%
inhibition at 72 h, 10 µM [4]: 11%
Ki [9]: 10.1 nM

COc1cccc(-c2cnc3[nH]cc(-c4cccc(OC)c4)c3c2)c1
IC50 [1]: 14600 nM

Oc1cccc(-c2cnc3[nH]cc(-c4cccc(O)c4)c3c2)c1
IC50 [1]: 105 nM
